From patent US20230113037A1 (Bayer Aktiengesellschaft, priority 2019, published 2023) come the findings set out here.

The target of assay [1] is T1, AHR (Mus musculus, UniProt P30561).
T1 sequence (P30561 1-848 P471L/N533S/M589L): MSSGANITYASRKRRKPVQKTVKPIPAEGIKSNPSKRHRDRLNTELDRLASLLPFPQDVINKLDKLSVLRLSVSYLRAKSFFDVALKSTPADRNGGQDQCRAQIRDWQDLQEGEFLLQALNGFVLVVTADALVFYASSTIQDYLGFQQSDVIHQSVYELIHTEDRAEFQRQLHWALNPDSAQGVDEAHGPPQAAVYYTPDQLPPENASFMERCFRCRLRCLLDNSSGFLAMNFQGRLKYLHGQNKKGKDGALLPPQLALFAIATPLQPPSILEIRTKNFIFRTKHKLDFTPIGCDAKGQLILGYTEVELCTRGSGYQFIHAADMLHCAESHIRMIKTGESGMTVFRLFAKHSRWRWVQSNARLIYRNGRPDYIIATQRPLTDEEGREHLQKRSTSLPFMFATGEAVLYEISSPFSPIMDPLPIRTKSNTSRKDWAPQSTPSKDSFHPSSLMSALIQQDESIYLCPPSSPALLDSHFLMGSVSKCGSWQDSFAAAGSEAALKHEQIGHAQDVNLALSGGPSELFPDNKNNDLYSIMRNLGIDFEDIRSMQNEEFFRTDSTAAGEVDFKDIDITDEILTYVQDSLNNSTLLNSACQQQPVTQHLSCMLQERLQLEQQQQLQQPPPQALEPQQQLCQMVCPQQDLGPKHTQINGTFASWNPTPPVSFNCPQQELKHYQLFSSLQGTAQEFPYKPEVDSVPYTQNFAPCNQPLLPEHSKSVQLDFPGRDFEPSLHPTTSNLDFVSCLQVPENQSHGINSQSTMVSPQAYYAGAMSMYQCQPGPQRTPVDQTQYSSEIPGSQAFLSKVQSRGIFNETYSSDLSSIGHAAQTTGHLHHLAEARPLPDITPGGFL
Kind of assay: In vitro assay 3: antagonism in mouse cell line (AHR transactivation, firefly luciferase reporter, kynurenic acid prestimulated). In kind it is cell-based. The method in brief: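 Kynurenic acid-prestimulated mouse reporter cells; stable AHR-inducible firefly luc construct with DRE sites in promoter. No-agonist wells = positive inhibition ctrl. Luminescence normalized to pos/neg ctrls; n>1 reported as mean or median.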
(In general: A reporter such as luciferase makes a cellular process visible.)

Assay [2] has as its target T2, AHR (Homo sapiens, UniProt P35869).
T2 construct: U87 MG glioblastoma cells (ATCC #HTB-14) endogenously expressing AHR; endogenous in cells; host or cells: U87 MG glioblastoma cells (ATCC #HTB-14)
T2 sequence (P35869 11-848): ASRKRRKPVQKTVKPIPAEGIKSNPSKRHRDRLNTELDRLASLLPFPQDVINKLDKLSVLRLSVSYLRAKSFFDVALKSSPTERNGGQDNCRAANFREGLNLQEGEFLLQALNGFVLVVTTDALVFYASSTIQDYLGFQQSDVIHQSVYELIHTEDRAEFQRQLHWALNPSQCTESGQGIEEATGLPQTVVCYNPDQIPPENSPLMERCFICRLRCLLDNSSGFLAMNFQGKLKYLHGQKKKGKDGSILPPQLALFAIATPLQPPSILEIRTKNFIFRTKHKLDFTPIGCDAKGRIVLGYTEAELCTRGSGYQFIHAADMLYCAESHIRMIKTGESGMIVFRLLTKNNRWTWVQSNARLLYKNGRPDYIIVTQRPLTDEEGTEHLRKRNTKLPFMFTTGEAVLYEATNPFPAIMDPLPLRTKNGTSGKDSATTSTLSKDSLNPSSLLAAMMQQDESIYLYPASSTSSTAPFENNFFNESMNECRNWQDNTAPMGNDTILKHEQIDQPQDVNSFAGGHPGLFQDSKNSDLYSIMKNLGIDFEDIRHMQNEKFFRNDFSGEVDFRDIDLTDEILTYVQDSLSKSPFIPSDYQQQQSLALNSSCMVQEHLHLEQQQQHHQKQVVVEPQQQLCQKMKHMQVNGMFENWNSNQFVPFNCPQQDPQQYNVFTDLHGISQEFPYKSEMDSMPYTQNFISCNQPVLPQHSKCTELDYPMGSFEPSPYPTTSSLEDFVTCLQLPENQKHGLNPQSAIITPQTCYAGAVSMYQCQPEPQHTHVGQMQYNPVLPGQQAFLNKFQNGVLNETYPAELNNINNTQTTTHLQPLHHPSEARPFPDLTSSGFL
Kind of assay: In vitro assay 1: antagonism in human cell line (AHR transactivation, firefly luciferase reporter, kynurenic acid prestimulated). In kind it is cell-based. The settings on record: AHR Antagonism Human IC50 [M]. The essentials: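 Antagonism measured as loss of kynurenic acid-driven firefly luciferase from DRE reporter in stably transfected U87 MG cells; constitutive Renilla signal monitors cytotoxicity. Positive/negative control normalization, staurosporine 5 μM with 150 μM kynurenic acid as inhibition control; replicates given as mean or median.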

Where [3] appears, read: mouse Hepa 1c1c7 cells, 200 μM kynurenic acid, 20 hours, read-out: AHR Antagonism Mouse IC50.
The mark [4] stands for this setting: read-out: AHR Antagonism Mouse IC50, mouse Hepa 1c1c7 cells, 200 μM kynurenic acid, 20 hours.

Read-outs that look alike come from different tables or passages of the source.

Broadly, the IC50 is the midpoint of a concentration-inhibition curve.

Consider `COc1ccc(-c2nc3c4cccc(OCC(C)(F)F)c4nc(N[C@@H]4CCCCNC4=O)n3n2)cc1` [Example 668, (3R)-3-{[7-(2,2-difluoropropoxy)-2-(4-methoxyphenyl)[1,2,4]triazolo[1,5-c]quinazolin-5-yl]amino}azepan-2-one], for which the values for the IC50 on AHR [1] (setting [3]) and at AHR [2] were 271 nM and > 5.71e-06 M, respectively.
Regarding `COc1ccc(-c2nc3c4cccc(O)c4nc(N[C@@H]4CCCCNC4=O)n3n2)cc1` [Example 669, (3R)-3-{[7-hydroxy-2-(4-methoxyphenyl)[1,2,4]triazolo[1,5-c]quinazolin-5-yl]amino}azepan-2-one], the values for the IC50 on AHR [1] (setting [4]) and at AHR [2] were 4.96 nM and 1.99e-09 M, respectively.
Regarding `COc1ccc(-c2nc3c4cccc(OCCC(F)(F)F)c4nc(N[C@@H]4CCCCNC4=O)n3n2)cc1` [Example 670, (3R)-3-{[2-(4-methoxyphenyl)-7-(3,3,3-trifluoropropoxy)[1,2,4]triazolo[1,5-c]quinazolin-5-yl]amino}azepan-2-one], the IC50 at AHR [1] (setting [3]) amounted to 160 nM; at AHR [2], 2.78e-07 M.
In the case of `O=C1NCCCC[C@H]1Nc1nc2c(C(F)(F)F)cccc2c2nc(-c3ccc(Cl)cc3OC(F)F)nn12` [Example 673, (3R)-3-({2-[4-chloro-2-(difluoromethoxy)phenyl]-7-(trifluoromethyl)[1,2,4]triazolo[1,5-c]quinazolin-5-yl}amino)azepan-2-one], the IC50 at AHR [1] (setting [3]) was 1.57 nM; at AHR [2], > 2e-05 M.
As for `CCn1cc(-c2nc3c4cccc(C(F)(F)F)c4nc(N[C@@H]4CCCCNC4=O)n3n2)c(C)n1` [Example 674, (3R)-3-{[2-(1-ethyl-3-methyl-1H-pyrazol-4-yl)-7-(trifluoromethyl)[1,2,4]triazolo[1,5-c]quinazolin-5-yl]amino}azepan-2-one], the IC50 was 0.669 nM on AHR [1] (setting [3]) and 3.44e-10 M on AHR [2].
On the same counts, the results for `CCn1cc(-c2nc3c4cccc(C(F)(F)F)c4nc(N[C@@H]4CCCCNC4=O)n3n2)cn1` [Example 675, (3R)-3-{[2-(1-ethyl-1H-pyrazol-4-yl)-7-(trifluoromethyl)[1,2,4]triazolo[1,5-c]quinazolin-5-yl]amino}azepan-2-one] are 2.26 nM and 1.22e-09 M.
In the case of `O=C1NCCCC[C@H]1Nc1nc2c(C(F)(F)F)cccc2c2nc(-c3cnn(C4CC4)c3)nn12` [Example 676, (3R)-3-{[2-(1-cyclopropyl-1H-pyrazol-4-yl)-7-(trifluoromethyl)[1,2,4]triazolo[1,5-c]quinazolin-5-yl]amino}azepan-2-one], the IC50 on AHR [1] (setting [3]) was found to be 1.97 nM; at AHR [2], 6.18e-10 M.
On to `O=C1NCCCC[C@H]1Nc1nc2c(C(F)(F)F)cccc2c2nc(-c3cn[nH]c3)nn12` [Example 677, (3R)-3-{[2-(1H-pyrazol-4-yl)-7-(trifluoromethyl)[1,2,4]triazolo[1,5-c]quinazolin-5-yl]amino}azepan-2-one], for which the values for the half-inhibitory concentration (IC50) on AHR [1] (setting [3]) and against AHR [2] were 53.1 nM and 1.33e-08 M, respectively.
Regarding `CS(=O)(=O)c1ccc(-c2nc3c4cccc(Br)c4nc(N[C@H]4CCCCNC4=O)n3n2)cc1` [Example 680, (3S)-3-({7-bromo-2-[4-(methanesulfonyl)phenyl][1,2,4]triazolo[1,5-c]quinazolin-5-yl}amino)azepan-2-one], the IC50 came out at 35.6 nM at AHR [1] (setting [4]) and 3.93e-08 M against AHR [2].
For the molecule `COc1ccc(-c2nc3c4cccc(Br)c4nc(N[C@H]4COCCNC4=O)n3n2)cc1` [Example 681, (6S)-6-{[7-bromo-2-(4-methoxyphenyl)[1,2,4]triazolo[1,5-c]quinazolin-5-yl]amino}-1,4-oxazepan-5-one], the IC50 was found to be 13.1 nM on AHR [1] (setting [3]) and 1.45e-08 M at AHR [2].
The like results for `O=C1NCCCC[C@@H]1Nc1nc2ccccc2c2nc(-c3ccc(Br)cc3OC(F)(F)F)nn12` [Example 682, (3S)-3-({2-[4-bromo-2-(trifluoromethoxy)phenyl][1,2,4]triazolo[1,5-c]quinazolin-5-yl}amino)azepan-2-one] were, in that order, 6.82 nM and 7.43e-08 M.
The like results for `CCCNC(=O)[C@H](CC)Nc1nc2c(Br)cccc2c2nc(-c3ccc(Cl)cc3OC(F)F)nn12` [Example 683, (2S)-2-({7-bromo-2-[4-chloro-2-(difluoromethoxy)phenyl][1,2,4]triazolo[1,5-c]quinazolin-5-yl}amino)-N-propylbutanamide] were, in that order, 16.6 nM and > 5.71e-07 M.
The like results for `CCCCNC(=O)[C@@H](C)Nc1nc2c(Br)cccc2c2nc(-c3ccc(Cl)cc3OC(F)F)nn12` [Example 684, N^2-{7-bromo-2-[4-chloro-2-(difluoromethoxy)phenyl][1,2,4]triazolo[1,5-c]quinazolin-5-yl}-N-butyl-D-alaninamide] were, in that order, 0.896 nM and 3.39e-09 M.
With `CCCNC(=O)[C@H](CC)Nc1nc2c(Br)cccc2c2nc(-c3ccc(Cl)cc3OC(F)(F)F)nn12` [Example 685, (2S)-2-({7-bromo-2-[4-chloro-2-(trifluoromethoxy)phenyl][1,2,4]triazolo[1,5-c]quinazolin-5-yl}amino)-N-propylbutanamide], the results for the IC50 on AHR [1] (setting [3]) and against AHR [2] were 142 nM and > 2e-06 M, respectively.
Turning to `CCCCNC(=O)[C@H](C)Nc1nc2c(Br)cccc2c2nc(-c3ccc(Cl)cc3OC(F)F)nn12` [Example 686, N^2-{7-bromo-2-[4-chloro-2-(difluoromethoxy)phenyl][1,2,4]triazolo[1,5-c]quinazolin-5-yl}-N-butyl-L-alaninamide], the results for the IC50 at AHR [1] (setting [3]) and against AHR [2] were 18.5 nM and 2.1e-07 M, respectively.
The like results for `CCCCNC(=O)[C@H](C)Nc1nc2c(Br)cccc2c2nc(-c3ccc(Cl)cc3OC(F)(F)F)nn12` [Example 687, N^2-{7-bromo-2-[4-chloro-2-(trifluoromethoxy)phenyl][1,2,4]triazolo[1,5-c]quinazolin-5-yl}-N-butyl-L-alaninamide] were, in that order, 97.8 nM and > 2e-06 M.
`CC[C@H](Nc1nc2ccccc2c2nc(-c3cnccn3)nn12)C(N)=O` [Example 688, (2S)-2-{[2-(pyrazin-2-yl)[1,2,4]triazolo[1,5-c]quinazolin-5-yl]amino}butanamide]: the IC50 on AHR [1] (setting [3]) was > 20000 nM; against AHR [2] it was > 2e-05 M.
On the same counts, the results for `O=C1NCCCC[C@H]1Nc1nc2ccccc2c2nc(-c3cnccn3)nn12` [Example 689, (3R)-3-{[2-(pyrazin-2-yl)[1,2,4]triazolo[1,5-c]quinazolin-5-yl]amino}azepan-2-one] are 156 nM and 1.6e-07 M.
As for `CC[C@H](Nc1nc2ccccc2c2nc(-c3cn(C)nn3)nn12)C(N)=O` [Example 690, (2S)-2-{[2-(1-methyl-1H-1,2,3-triazol-4-yl)[1,2,4]triazolo[1,5-c]quinazolin-5-yl]amino}butanamide], the results for the IC50 at AHR [1] (setting [4]) and against AHR [2] were > 20000 nM and > 2e-05 M, respectively.
As to `CC[C@@H](Nc1nc2ccccc2c2nc(-c3cnccn3)nn12)C(N)=O` [Example 691, (2R)-2-{[2-(pyrazin-2-yl)[1,2,4]triazolo[1,5-c]quinazolin-5-yl]amino}butanamide], the values for the half-inhibitory concentration (IC50) at AHR [1] (setting [3]) and against AHR [2] were 240 nM and 5.61e-07 M, respectively.
